Data published in PubChem BioAssay AID1845204 (Molecular Pharmacology Branch, DTP, NCI, 2023).
Where “and” joins values, the source holds several entries; their conditions need not be identical. Equal values may be shown once.

Tested on: HSSY-II tumor spheroid viability
Test: Anticancer human tumor HSSY-II cell line growth inhibition;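 further: spheroids exposed to compounds for seven days before reading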;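 on viability, T/C: percent of DMSO vehicle control viability so 100% = untreated level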
Details: spheroids with HUVEC and MSC; for viability, T/C: stronger effect = lower value
Summary of the method: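 Complex tumor spheroids combined malignant cells with endothelial cells and mesenchymal stem cells. DNA-damaging drugs and DNA repair inhibitors were tested alone and in combination, at half-log dilutions down from clinical Cmax (top 10 microM if Cmax unknown), 0.25% DMSO final.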

[1] = curve of first compound, second compound 0.003 µM
[2] = curve of first compound, second compound 0.00949 µM
[3] = curve of first compound, second compound 0.03 µM
[4] = curve of first compound, second compound 0.0949 µM
[5] = curve of first compound, second compound 0.3 µM

CNCc1ccc(-c2cc(-c3nc(-c4ccc(S(=O)(=O)C(C)C)cc4)cnc3N)on2)cc1 + CC[C@@]1(O)C(=O)OCc2c1cc1n(c2=O)Cc2cc3c(CN(C)C)c(O)ccc3nc2-1
IC50 [1]: 18.6 nM
IC50 [2]: < 9.49 nM
IC50 [3]: < 9.49 nM
IC50 [4]: < 9.49 nM
IC50 [5]: < 9.49 nM
viability, T/C (second compound 0.003 µM, first compound 0.00949 µM): 77.6%
viability, T/C (second compound 0.003 µM, first compound 0.03 µM): 30.6%
viability, T/C (second compound 0.003 µM, first compound 0.0949 µM): 3.68%
viability, T/C (second compound 0.003 µM, first compound 0.3 µM): 4.09%
viability, T/C (second compound 0.003 µM, first compound 0.949 µM): 2.62%
viability, T/C (second compound 0.003 µM, first compound 3 µM): 0.44%
viability, T/C (second compound 0.00949 µM, first compound 0.00949 µM): 32.7%
viability, T/C (second compound 0.00949 µM, first compound 0.03 µM): 9.13%
viability, T/C (second compound 0.00949 µM, first compound 0.0949 µM): 3.26%
viability, T/C (second compound 0.00949 µM, first compound 0.3 µM): 4.02%
viability, T/C (second compound 0.00949 µM, first compound 0.949 µM): 2.08%
viability, T/C (second compound 0.00949 µM, first compound 3 µM): 0.35%
viability, T/C (second compound 0.03 µM, first compound 0.00949 µM): 6.55%
viability, T/C (second compound 0.03 µM, first compound 0.03 µM): 4.21%
viability, T/C (second compound 0.03 µM, first compound 0.0949 µM): 3.3%
viability, T/C (second compound 0.03 µM, first compound 0.3 µM): 3.14%
viability, T/C (second compound 0.03 µM, first compound 0.949 µM): 2.37%
viability, T/C (second compound 0.03 µM, first compound 3 µM): 0.13%
viability, T/C (second compound 0.0949 µM, first compound 0.00949 µM): 4.97%
viability, T/C (second compound 0.0949 µM, first compound 0.03 µM): 3.98%
viability, T/C (second compound 0.0949 µM, first compound 0.0949 µM): 4.07%
viability, T/C (second compound 0.0949 µM, first compound 0.3 µM): 3.55%
viability, T/C (second compound 0.0949 µM, first compound 0.949 µM): 2.72%
viability, T/C (second compound 0.0949 µM, first compound 3 µM): 0.42%
viability, T/C (second compound 0.3 µM, first compound 0.00949 µM): 4.42%
viability, T/C (second compound 0.3 µM, first compound 0.03 µM): 3.95%
viability, T/C (second compound 0.3 µM, first compound 0.0949 µM): 3.59%
viability, T/C (second compound 0.3 µM, first compound 0.3 µM): 3.99%
viability, T/C (second compound 0.3 µM, first compound 0.949 µM): 3.16%
viability, T/C (second compound 0.3 µM, first compound 3 µM): 0.24%

CC1COCCN1c1cc(-c2ccnn2C)c2ccnc(-c3ccn[nH]3)c2n1 (configuration not stated) + CC[C@@]1(O)C(=O)OCc2c1cc1n(c2=O)Cc2cc3c(CN(C)C)c(O)ccc3nc2-1
IC50 [1]: < 31.6 nM
IC50 [2]: < 31.6 nM
IC50 [3]: < 31.6 nM
IC50 [4]: < 31.6 nM
IC50 [5]: < 31.6 nM
viability, T/C (second compound 0.003 µM, first compound 0.0316 µM): 6.17%
viability, T/C (second compound 0.003 µM, first compound 0.1 µM): 4.36%
viability, T/C (second compound 0.003 µM, first compound 0.316 µM): 2.62%
viability, T/C (second compound 0.003 µM, first compound 1 µM): 1.92%
viability, T/C (second compound 0.003 µM, first compound 3.16 µM): 1.88%
viability, T/C (second compound 0.003 µM, first compound 10 µM): 2.35%
viability, T/C (second compound 0.00949 µM, first compound 0.0316 µM): 4.45%
viability, T/C (second compound 0.00949 µM, first compound 0.1 µM): 3.49%
viability, T/C (second compound 0.00949 µM, first compound 0.316 µM): 2.45%
viability, T/C (second compound 0.00949 µM, first compound 1 µM): 1.99%
viability, T/C (second compound 0.00949 µM, first compound 3.16 µM): 1.87%
viability, T/C (second compound 0.00949 µM, first compound 10 µM): 2.14%
viability, T/C (second compound 0.03 µM, first compound 0.0316 µM): 3.87%
viability, T/C (second compound 0.03 µM, first compound 0.1 µM): 3.3%
viability, T/C (second compound 0.03 µM, first compound 0.316 µM): 2.51%
viability, T/C (second compound 0.03 µM, first compound 1 µM): 1.83%
viability, T/C (second compound 0.03 µM, first compound 3.16 µM): 1.68%
viability, T/C (second compound 0.03 µM, first compound 10 µM): 2.01%
viability, T/C (second compound 0.0949 µM, first compound 0.0316 µM): 3.97%
viability, T/C (second compound 0.0949 µM, first compound 0.1 µM): 3.08%
viability, T/C (second compound 0.0949 µM, first compound 0.316 µM): 2.54%
viability, T/C (second compound 0.0949 µM, first compound 1 µM): 1.86%
viability, T/C (second compound 0.0949 µM, first compound 3.16 µM): 1.59%
viability, T/C (second compound 0.0949 µM, first compound 10 µM): 1.83%
viability, T/C (second compound 0.3 µM, first compound 0.0316 µM): 3.93%
viability, T/C (second compound 0.3 µM, first compound 0.1 µM): 3.43%
viability, T/C (second compound 0.3 µM, first compound 0.316 µM): 2.61%
viability, T/C (second compound 0.3 µM, first compound 1 µM): 1.6%
viability, T/C (second compound 0.3 µM, first compound 3.16 µM): 1.43%
viability, T/C (second compound 0.3 µM, first compound 10 µM): 1.82%

CNCc1ccc(-c2cc(-c3nc(-c4ccc(S(=O)(=O)C(C)C)cc4)cnc3N)on2)cc1
viability, T/C (compound 0.00949 µM): 97.3% and 98% and 97.5%
viability, T/C (compound 0.03 µM): 74.1% and 79.3% and 68.2%
viability, T/C (compound 0.0949 µM): 8.25% and 5.12% and 7.65%
viability, T/C (compound 0.3 µM): 4.73% and 4.15% and 5.89%
viability, T/C (compound 0.949 µM): 1.97% and 2.75% and 1.7%
viability, T/C (compound 3 µM): 0.23% (2×) and 0.46%
IC50 (curve of compound): 45.8 nM and 47.3 nM and 42.4 nM
